The values below come from US9795139B2, “Molecules having pesticidal utility, and intermediates, compositions, and processes, related thereto” (priority 2015, dated 2017).

Assay type in all cases: in vivo
Data set [1] concerns Yellow Fever Mosquito (Aedes aegypti, AEDSAE). The note with it: about 1 day-old larvae, 96-well plate from 4000 ppm DMSO master, 3 days at room temperature. On the procedure: Certain molecules disclosed in this document were tested against YFM using procedures described in the following paragraph. In the reporting of the results, the “GPA & YFM Rating Table” was used (See Table Section).
Master plates containing 400 μg of a molecule dissolved in 100 μL of dimethyl sulfoxide (DMSO) (equivalent to a 4000 ppm solution) are used. A master plate of assembled molecules contains 15 μL per well. To this plate, 135 μL of a 90:10 water/acetone mixture is added to each well. A robot is programmed to dispense 15 μL aspirations from the master plate into an empty 96-well shallow plate (“daughter” plate). There are 6 reps (“daughter” plates) created per master. The created “daughter” plates are then immediately infested with YFM larvae.
The day before plates are to be treated, mosquito eggs are placed in Millipore water containing liver powder to begin hatching (4 g. into 400 mL). After the “daughter” plates are created using the robot, they are infested with 220 μL of the liver powder/larval mosquito mixture (about 1 day-old larvae). After plates are infested with mosquito larvae, a non-evaporative lid is used to cover the plate to reduce drying. Plates are held at room temperature for 3 days prior to grading. After 3 days, each well is observed and scored based on mortality. The results are indicated in the table entitled “Table ABC: Biological Results” (See Table Section).

For data set [2], the system named is Beet Armyworm (Spodoptera exigua, LAPHEG). The data set can be described thus: Bioassay on Beet Armyworm (BAW), 128-well diet tray assay. The note with it: 168 h, 50 μg/cm^2 on artificial diet, second instar larvae, 25° C., five to seven days, average of eight wells, read-out: BAW % Control (or Mortality) rating. The method, boiled down: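 In a 128-well format, eight wells per compound received a surface dose of 50 μg/cm^2 on artificial diet. After drying, each well got one to five second instar larvae, held at 25° C. with 14:10 photoperiod. Mortality percentages after five to seven days were averaged.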

The subject of data set [3] is Cabbage Looper (Trichoplusia ni, TRIPNI). The data set can be described thus: Bioassay on Cabbage Looper (CL), 128-well diet tray assay. The note with it: 168 h, 50 μg/cm^2 on artificial diet, second instar larvae, 25° C., five to seven days, average of eight wells, read-out: CL % Control (or Mortality) rating. A digest of the protocol:
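Mortality of second instar larvae exposed to diet coated with 50 μg/cm^2 compound (acetone-water 90:10 vehicle, dried); 25° C., 5–7 days.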

`O=C(NC1CCNC1=O)c1cc(NC(=O)C2C(c3cc(Cl)cc(Cl)c3)C2(Cl)Cl)ccc1Cl` (stereo not drawn) [PF29, trans-2-Chloro-5-(2,2-dichloro-3-(3,5-dichlorophenyl)cyclopropane-1-carbox-amido)-N-(2-oxopyrrolidin-3-yl)benzamide]: in data set [1], the “YFM % Control (or Mortality) rating” value is listed as “B (More than 0-Less than 80)”. The mortality at 50 µg/cm2 in data set [2] and in data set [3] was 50 to 100% throughout.
Consider `N#CC1CCC(NC(=O)c2cc(NC(=O)[C@H]3[C@H](c4ccc(Cl)c(Cl)c4)C3(Cl)Cl)ccc2Cl)C1` (relative stereo) [Molecule F36, trans-2-Chloro-N-(3-cyanocyclopentyl)-5-(2,2-dichloro-3-(3,4-dichlorophenyl)cyclopropanecarboxamido)benzamide], for which the “YFM % Control (or Mortality) rating” value in data set [1] is “B (More than 0-Less than 80)”. For the same compound, the mortality at 50 µg/cm2 in data set [2] and in data set [3] was 50 to 100% throughout.
With `O=C(N[C@@H]1CON(CC(F)(F)F)C1=O)c1cc(NC(=O)C2C(c3cc(Cl)cc(Cl)c3)C2(Cl)Cl)ccc1Cl` (stereo partly drawn) [PF28, trans-2-Chloro-5-(2,2-dichloro-3-(3,5-dichlorophenyl)cyclopropane-1-carbox-amido)-N—((R)-3-oxo-2-(2,2,2-trifluoroethyl)isoxazolidin-4-yl)benzamide], the “YFM % Control (or Mortality) rating” value in data set [1] was “A (80-100)”. The mortality at 50 µg/cm2 in data set [2] and in data set [3] was 50 to 100% throughout.
Turning to `O=C(NC1CN(C(=O)CC(F)(F)F)C1)c1cc(NC(=O)[C@H]2[C@H](c3cc(Cl)cc(Cl)c3)C2(Cl)Cl)ccc1Cl` (relative stereo) [PF12, trans-2-Chloro-5-(2,2-dichloro-3-(3,5-dichlorophenyl)cyclopropane-1-carboxamido)-N-(1-(3,3,3-trifluoropropanoyl)azetidin-3-yl)benzamide], the “YFM % Control (or Mortality) rating” value in data set [1] is “A (80-100)”. Moreover, the mortality at 50 µg/cm2 in data set [2] and in data set [3] was 50 to 100% throughout.
`O=C(NC1CCS(=O)(=O)C1)c1cc(NC(=O)[C@H]2[C@H](c3cc(Cl)c(Cl)c(Cl)c3)C2(Cl)Cl)ccc1Cl` (relative stereo) [PF19, trans-2-Chloro-5-(2,2-dichloro-3-(3,4,5-trichlorophenyl)cyclopropane-1-carboxamido)-N-(1,1-dioxidotetrahydrothiophen-3-yl)benzamide]: the “YFM % Control (or Mortality) rating” value in data set [1] is given as “B (More than 0-Less than 80)”. The mortality at 50 µg/cm2 in data set [2] and in data set [3] was 50 to 100% throughout.
As to `N#CC1(NC(=O)c2cc(NC(=O)[C@H]3[C@H](c4ccc(C(F)F)c(Cl)c4)C3(Cl)Cl)ccc2Cl)CC1` (relative stereo) [Molecule F89, trans-2-Chloro-N-(1-cyanocyclopropyl)-5-(2,2-dichloro-3-(3-chloro-4-(difluoromethyl)phenyl)cyclopropane-1-carboxamido)benzamide], the “YFM % Control (or Mortality) rating” value in data set [1] was “A (80-100)”. The mortality at 50 µg/cm2 in data set [2] and in data set [3] was 50 to 100% throughout.
As for `O=C1CC(NC(=O)c2cc(NC(=O)[C@H]3[C@H](c4cc(Cl)cc(Cl)c4)C3(Cl)Cl)ccc2Cl)C1` (relative stereo) [Molecule F68, trans-2-chloro-5-(2,2-dichloro-3-(3,5-dichloro-phenyl)cyclopropane-1-carboxamido)-N-(3-oxocyclobutyl)benzamide], the “YFM % Control (or Mortality) rating” value in data set [1] is given as “A (80-100)”. The mortality at 50 µg/cm2 in data set [2] and in data set [3] was 50 to 100% throughout.
Consider `O=C(NN1CCN(CC(F)(F)F)C1=O)c1cc(NC(=O)C2C(c3cc(Cl)cc(Cl)c3)C2(Cl)Cl)ccc1Cl` (stereo not drawn) [PF44, trans-2-Chloro-5-(2,2-dichloro-3-(3,5-dichlorophenyl)cyclopropane-1-carbox-amido)-N-(2-oxo-3-(2,2,2-trifluoroethyl)imidazolidin-1-yl)benzamide], for which, in data set [1], the “YFM % Control (or Mortality) rating” value is recorded as “A (80-100)”. In addition, the mortality at 50 µg/cm2 in data set [2] and in data set [3] was 50 to 100% throughout.
For `CCNC(=O)C1(NC(=O)c2cc(NC(=O)C3C(c4cc(Cl)cc(Cl)c4)C3(Cl)Cl)ccc2Cl)CC1` (stereo not drawn) [PF43, trans-2-Chloro-5-(2,2-dichloro-3-(3,5-dichlorophenyl)cyclopropane-1-carbox-amido)-N-(1-(ethylcarbamoyl)cyclopropyl)benzamide], the “YFM % Control (or Mortality) rating” value in data set [1] is listed as “A (80-100)”. Further, the mortality at 50 µg/cm2 in data set [2] and in data set [3] was 50 to 100% in each case.
Regarding `CN(C(=O)c1cc(NC(=O)[C@H]2[C@H](c3cc(Cl)c(Cl)c(Cl)c3)C2(Cl)Cl)ccc1Cl)C1(C#N)CC1` (relative stereo) [PF21, trans-2-Chloro-N-(1-cyanocyclopropyl)-5-(2,2-dichloro-3-(3,4,5-trichloro-phenyl)cyclopropane-1-carboxamido)-N-methylbenzamide], the “YFM % Control (or Mortality) rating” value in data set [1] is given as “B (More than 0-Less than 80)”. The mortality at 50 µg/cm2 in data set [2] and in data set [3] was 50 to 100% each time.
As to `O=C1CCC(NC(=O)c2cc(NC(=O)[C@H]3[C@H](c4cc(Cl)cc(Cl)c4)C3(Cl)Cl)ccc2Cl)CC1` (relative stereo) [Molecule F65, trans-2-Chloro-5-(2,2-dichloro-3-(3,5-dichlorophenyl)cyclopropane-1-carboxamido)-N-(4-oxocyclohexyl)benzamide], the “YFM % Control (or Mortality) rating” value in data set [1] was “A (80-100)”. Further, the mortality (as a rule, the share of the test organisms that died) at 50 µg/cm2 is 0 to 50% in data set [2] and 50 to 100% in data set [3].
Taken in the same sequence, the figures for `C[C@]1(c2cc(Cl)cc(Cl)c2)[C@H](C(=O)Nc2ccc(Cl)c(C(=O)NC3CC(F)(F)C3)c2)C1(Cl)Cl` (relative stereo) [Molecule F61, trans-2-chloro-5-(2,2-dichloro-3-(3,5-dichloro-phenyl)-3-methylcyclopropane-1-carboxamido)-N-(3,3-difluorocyclobutyl)-benzamide] were “A (80-100)”, 50 to 100% and 50 to 100%.
Take `N#CC1CCC(NC(=O)c2cc(NC(=O)[C@H]3[C@H](c4cc(Cl)c(Cl)c(Cl)c4)C3(Cl)Cl)ccc2Cl)C1` (relative stereo) [Molecule F39, trans-2-Chloro-N-(3-cyanocyclopentyl)-5-(2,2-dichloro-3-(3,4,5-trichlorophenyl)cyclopropanecarboxamido)benzamide]: the “YFM % Control (or Mortality) rating” value in data set [1] is on record as “A (80-100)”. The mortality at 50 µg/cm2 in data set [2] and in data set [3] was 50 to 100% throughout.
For the compound `Nc1ccc([C@H]2[C@H](C(=O)Nc3ccc(Cl)c(C(=O)NC4CC(F)(F)C4)c3)C2(Cl)Cl)cc1` (relative stereo) [Molecule F70, trans-5-(3-(4-aminophenyl)-2,2-dichlorocyclopropane-1-carboxamido)-2-chloro-N-(3,3-difluorocyclobutyl)benzamide], the “YFM % Control (or Mortality) rating” value in data set [1] was “D (No activity noticed in this bioassay)”. Moreover, the mortality at 50 µg/cm2 in data set [2] lay in the range of 0 to 50%; in data set [3], 50 to 100%.
For `O=C(NC1CCC(F)(F)CC1)c1cc(NC(=O)[C@H]2[C@H](c3cc(Cl)cc(Cl)c3)C2(Cl)Cl)ccc1Cl` (relative stereo) [Molecule F43, trans-2-Chloro-5-(2,2-dichloro-3-(3,5-dichlorophenyl)cyclopropanecarboxamido)-N-(4,4-difluorocyclohexyl)benzamide], the “YFM % Control (or Mortality) rating” value in data set [1] is reported as “A (80-100)”. Moreover, the mortality at 50 µg/cm2 in data set [2] and in data set [3] was 50 to 100% throughout.
`CN(C(=O)c1cc(NC(=O)[C@H]2[C@H](c3ccc(Cl)c(Cl)c3)C2(Cl)Cl)ccc1Cl)C1CC(F)(F)C1` (relative stereo) [Molecule F33, trans-2-Chloro-5-(2,2-dichloro-3-(3,4-dichlorophenyl)cyclopropanecarboxamido)-N-(3,3-difluorocyclobutyl)-N-methylbenzamide]: the “YFM % Control (or Mortality) rating” value in data set [1] is recorded as “A (80-100)”. For the same compound, the mortality at 50 µg/cm2 in data set [2] and in data set [3] was 50 to 100% in each case.
Consider `O=C(NC1CCC(F)(F)CC1)c1cc(NC(=O)[C@H]2[C@H](c3ccc(Cl)c(Cl)c3)C2(Cl)Cl)ccc1Cl` (relative stereo) [Molecule F44, trans-2-Chloro-5-(2,2-dichloro-3-(3,4-dichlorophenyl)cyclopropanecarboxamido)-N-(4,4-difluorocyclohexyl)benzamide], for which the “YFM % Control (or Mortality) rating” value in data set [1] was “A (80-100)”. Besides, the mortality at 50 µg/cm2 in data set [2] and in data set [3] was 50 to 100% throughout.
